Results from patent US7871793B2, “Antimicrobial carbohydrates and methods of using same” (Burnham Institute for Medical Research, priority 2004, dated 2011).

Experiments:
[1] = system: H. pylori infection; settings: patients; cited from earlier work
[2] = system: H. pylori (ATCC43504); assay: Cultivation of H. pylori in the presence or absence of cholesterol; type: cell-based, Helicobacter pylori; settings: Ham's F-12 with 0.005% cholesterol, 5 days
[3] = system: Helicobacter pylori (ATCC43504); assay: Cell growth assay of H. pylori (microbroth dilution, OD 600 nm); type: cell-based; settings: ATCC43504, Brucella broth, 96-well plate, 35° C., 15% CO2, 4 days, OD600
[4] = system: UDP-Glc:sterol glucosyltransferase; assay: In vitro synthesis of CGL from UDP-Glc and cholesterol by sonicated H. pylori; type: biochemical, Helicobacter pylori; settings: 5.0 mU in 100 μl reaction (50.0 mU/ml), 30° C., 3 hours
[5] = system: H. pylori; assay: Cell motility assay (time-lapse confocal images); type: cell-based, Helicobacter pylori; settings: 31.2 mU/ml or same protein concentration, 3 days, mean±SD

For `CC[C@H]1OC(=O)[C@H](C)[C@@H](O[C@H]2C[C@@](C)(OC)[C@@H](O)[C@H](C)O2)[C@H](C)[C@@H](O[C@@H]2O[C@H](C)C[C@H](N(C)C)[C@H]2O)[C@](C)(OC)C[C@@H](C)C(=O)[C@H](C)[C@@H](O)[C@]1(C)O` [clarithromycin], the eradication rate [1] is given as “about 40%”.

In the case of `Cc1ncc([N+](=O)[O-])n1CCO` [metronidazole], the eradication rate [1] is given as “less than 10%”.

In the case of `CC1(C)S[C@@H]2[C@H](NC(=O)[C@H](N)c3ccc(O)cc3)C(=O)N2[C@H]1C(=O)O` [amoxicillin], the eradication rate [1] is given as “less than 20%”.

For `CC(C)CCC[C@@H](C)[C@H]1CC[C@H]2[C@@H]3CC=C4C[C@@H](O)CC[C@]4(C)[C@H]3CC[C@]12C` [cholesterol], the morphology [2] was “normal”, the motility [2] was “good” and the CFU/ml ([2]; 35° C.) was 1 × 10^8 CFU/ml.

B1: CD43 free of a GlcNAcα residue: control soluble CD43 produced without α4GnT cDNA; side chain Galβ1→4GlcNAcβ1→6(Galβ1→3)GalNAcα→Ser/Thr (protein, UniProt P16150 20-253, looked up)
extracellular domain: STTAVQTPTSGEPLVSTSEPLSSKMYTTSITSDPKADSTGDQTSALPPSTSINEGSPLWTSIGASTGSPLPEPTTYQEVSIKMSSVPQETPHATSHPAVPITANSLGSHTVTGGTITTNSPETSSRTSGAPVTTAASSLETSRGTSGPPLTMATVSLETSKGTSGPPVTMATDSLETSTGTTGPPVTMTTGSLEPSSGASGPQVSSVKLSTMMSPTTSTNASTVPFRNPDENSR
modifications: extracellular domain core2 O-glycans lacking terminal GlcNAc
notes: control soluble CD43 produced without α4GnT cDNA; side chain Galβ1→4GlcNAcβ1→6(Galβ1→3)GalNAcα→Ser/Thr
With B1 the “growth of H. pylori” value [3] was “drastic growth”, the “peak of CGL at m/z 571.6 in products of sonicated H. pylori” value [4] was “a peak of CGL was detected” and the “mean velocity of seven H. pylori” value [5] was 21.1±2.6 μm/sec. For the same molecule, the “mean velocity of seven H. pylori” value ([5]; listed as αGlcNAc (−)) was 21.2±2.6 μm/sec.
